Patent publication US20200291096A1, “BICYCLIC PEPTIDE LIGAND STING CONJUGATES AND USES THEREOF” (priority 2017, published 2020)
Starred links: 1 amine or outer side, 2 acyl side, 3 side chain; linkers in the order of their positions; H or OH if unused. Positions of bridges follow the written chain, without caps; N, C: chain ends. Non-standard residues stand in square brackets, D forms with d. Residues, ends and D or L forms follow the SMILES beside them. 1Nal = N[C@@H](Cc1cccc2ccccc12)C(=O)O; TBMB = c1c(C[*:1])cc(C[*:3])cc1C[*:2]; Tle = CC(C)(C)[C@H](N)C(=O)O; βAla = NCCC(=O)O; Sar = CNCC(=O)O

Columns and labels:
MMP1 [1] = target: T1, MMP1 (Homo sapiens, UniProt P03956); experiment: Effect on MMP1 catalytic activity; format: biochemical; settings: in vitro
T1 sequence (P03956 100-469): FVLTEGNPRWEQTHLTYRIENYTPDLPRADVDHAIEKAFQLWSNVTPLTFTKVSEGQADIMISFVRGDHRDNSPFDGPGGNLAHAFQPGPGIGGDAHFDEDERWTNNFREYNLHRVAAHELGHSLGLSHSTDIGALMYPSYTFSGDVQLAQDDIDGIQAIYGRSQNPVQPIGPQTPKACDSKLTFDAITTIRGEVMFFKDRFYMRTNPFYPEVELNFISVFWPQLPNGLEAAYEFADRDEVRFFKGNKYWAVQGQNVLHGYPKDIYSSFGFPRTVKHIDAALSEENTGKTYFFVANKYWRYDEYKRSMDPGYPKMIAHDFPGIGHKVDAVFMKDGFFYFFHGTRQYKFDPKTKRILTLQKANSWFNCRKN

MMP2 [2] = target: T2, MMP2 (Homo sapiens, UniProt P08253); experiment: Effect on MMP2 catalytic activity; format: biochemical; settings: in vitro
T2 sequence (P08253 110-660): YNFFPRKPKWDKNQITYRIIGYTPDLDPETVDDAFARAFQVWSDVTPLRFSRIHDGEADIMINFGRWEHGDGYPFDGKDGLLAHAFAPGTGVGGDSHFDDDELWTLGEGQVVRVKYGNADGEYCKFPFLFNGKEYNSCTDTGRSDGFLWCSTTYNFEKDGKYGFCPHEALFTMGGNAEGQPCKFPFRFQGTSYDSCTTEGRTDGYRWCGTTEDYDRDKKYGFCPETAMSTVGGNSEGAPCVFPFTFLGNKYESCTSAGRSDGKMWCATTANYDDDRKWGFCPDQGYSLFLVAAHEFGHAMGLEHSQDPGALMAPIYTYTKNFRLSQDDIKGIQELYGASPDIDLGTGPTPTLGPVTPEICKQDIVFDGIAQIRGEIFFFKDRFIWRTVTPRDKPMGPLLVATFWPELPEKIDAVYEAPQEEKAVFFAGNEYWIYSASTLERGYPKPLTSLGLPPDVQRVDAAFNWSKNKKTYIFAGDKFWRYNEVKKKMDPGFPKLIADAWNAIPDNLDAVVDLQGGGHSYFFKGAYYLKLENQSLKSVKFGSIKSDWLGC

MMP9 = MMP9 (Homo sapiens, UniProt P14780); experiment: Effect on MMP9 catalytic activity; format: biochemical; settings: in vitro
MMP16 = MMP16 (Homo sapiens, UniProt P51512); experiment: Binding to related MMP family member MMP16
MMP15 = MMP15 (Homo sapiens, UniProt P51511); experiment: Binding to related MMP family member MMP15
MMP24 = MMP24 (Homo sapiens, UniProt Q9Y5R2); experiment: Binding to related MMP family member MMP24
MT1 = MT1 (Homo sapiens, UniProt P50281); experiment: Effect on catalytic activity of MT1 in vitro; format: biochemical
[3] = tested on: cell migration or invasion; experiment: Effect on cell migration or invasion; format: cell-based; settings: in vitro
Pro-MMP1 = target: T3, Pro-MMP1 (Homo sapiens, UniProt P03956); experiment: Binding to related MMP family member Pro-MMP1
T3 sequence (P03956 20-469 limits assumed): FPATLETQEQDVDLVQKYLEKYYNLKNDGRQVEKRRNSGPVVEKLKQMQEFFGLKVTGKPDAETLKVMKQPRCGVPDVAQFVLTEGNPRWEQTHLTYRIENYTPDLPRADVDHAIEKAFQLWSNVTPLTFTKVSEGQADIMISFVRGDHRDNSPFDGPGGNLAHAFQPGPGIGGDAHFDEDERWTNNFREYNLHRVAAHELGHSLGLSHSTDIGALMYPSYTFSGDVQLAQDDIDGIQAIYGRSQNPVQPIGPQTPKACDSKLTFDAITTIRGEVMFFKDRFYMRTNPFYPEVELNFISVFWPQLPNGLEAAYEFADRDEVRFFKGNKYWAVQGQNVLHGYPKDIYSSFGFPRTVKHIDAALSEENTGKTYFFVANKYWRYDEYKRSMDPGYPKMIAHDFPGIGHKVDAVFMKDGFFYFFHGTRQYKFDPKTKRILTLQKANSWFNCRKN

MMP1 [4] = target: T1, MMP1; experiment: Binding to related MMP family member MMP1
catalytic domain (MT1) = experiment: Binding to catalytic domain of MT1
MMP2 [5] = target: T2, MMP2; experiment: Binding to related MMP family member MMP2

Chain of MMP9 (P14780 94-707, species assumed): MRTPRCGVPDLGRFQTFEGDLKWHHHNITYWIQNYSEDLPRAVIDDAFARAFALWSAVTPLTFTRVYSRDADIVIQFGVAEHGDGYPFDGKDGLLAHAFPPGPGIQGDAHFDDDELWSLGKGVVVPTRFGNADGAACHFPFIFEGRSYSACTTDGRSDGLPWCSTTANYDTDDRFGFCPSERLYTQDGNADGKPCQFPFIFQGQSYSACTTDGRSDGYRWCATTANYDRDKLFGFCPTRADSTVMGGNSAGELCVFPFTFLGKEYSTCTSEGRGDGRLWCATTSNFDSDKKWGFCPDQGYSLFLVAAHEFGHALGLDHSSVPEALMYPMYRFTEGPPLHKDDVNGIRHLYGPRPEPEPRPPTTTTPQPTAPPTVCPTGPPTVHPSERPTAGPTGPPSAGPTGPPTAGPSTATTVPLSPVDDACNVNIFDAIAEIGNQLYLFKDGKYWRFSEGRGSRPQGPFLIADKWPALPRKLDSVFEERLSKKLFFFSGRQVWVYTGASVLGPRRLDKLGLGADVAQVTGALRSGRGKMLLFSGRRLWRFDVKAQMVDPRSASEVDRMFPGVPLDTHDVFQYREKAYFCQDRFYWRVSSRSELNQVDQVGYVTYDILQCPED
Chain of MMP24 (Q9Y5R2 156-645, species assumed): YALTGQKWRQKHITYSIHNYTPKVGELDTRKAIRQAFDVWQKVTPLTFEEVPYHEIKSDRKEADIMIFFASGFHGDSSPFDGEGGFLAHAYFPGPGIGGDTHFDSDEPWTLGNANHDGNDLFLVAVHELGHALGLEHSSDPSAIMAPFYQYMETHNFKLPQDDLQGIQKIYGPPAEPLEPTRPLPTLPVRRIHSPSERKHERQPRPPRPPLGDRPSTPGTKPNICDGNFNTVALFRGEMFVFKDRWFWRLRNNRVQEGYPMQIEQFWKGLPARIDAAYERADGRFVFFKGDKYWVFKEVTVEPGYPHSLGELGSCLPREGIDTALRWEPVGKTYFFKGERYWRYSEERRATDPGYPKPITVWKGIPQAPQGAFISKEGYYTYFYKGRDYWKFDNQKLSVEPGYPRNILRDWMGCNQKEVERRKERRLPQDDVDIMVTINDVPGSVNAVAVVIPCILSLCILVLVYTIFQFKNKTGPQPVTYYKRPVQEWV
Chain of MMP15 (P51511 132-669, species assumed): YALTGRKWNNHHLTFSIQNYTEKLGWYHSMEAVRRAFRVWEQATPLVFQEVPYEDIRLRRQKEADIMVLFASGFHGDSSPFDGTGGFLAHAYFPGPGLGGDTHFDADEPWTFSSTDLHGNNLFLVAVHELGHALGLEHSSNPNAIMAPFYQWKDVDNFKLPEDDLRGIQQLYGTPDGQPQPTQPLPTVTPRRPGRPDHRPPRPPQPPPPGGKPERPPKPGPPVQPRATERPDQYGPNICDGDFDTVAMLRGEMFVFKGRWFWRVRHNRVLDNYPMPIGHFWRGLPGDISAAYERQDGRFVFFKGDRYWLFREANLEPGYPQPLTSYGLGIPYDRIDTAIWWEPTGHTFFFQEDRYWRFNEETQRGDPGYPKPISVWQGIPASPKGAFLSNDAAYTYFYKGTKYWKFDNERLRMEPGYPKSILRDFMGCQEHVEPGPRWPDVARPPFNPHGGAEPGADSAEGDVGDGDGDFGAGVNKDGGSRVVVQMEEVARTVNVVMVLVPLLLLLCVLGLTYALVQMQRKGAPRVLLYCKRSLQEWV
Chain of MMP16 (P51512 120-607, species assumed): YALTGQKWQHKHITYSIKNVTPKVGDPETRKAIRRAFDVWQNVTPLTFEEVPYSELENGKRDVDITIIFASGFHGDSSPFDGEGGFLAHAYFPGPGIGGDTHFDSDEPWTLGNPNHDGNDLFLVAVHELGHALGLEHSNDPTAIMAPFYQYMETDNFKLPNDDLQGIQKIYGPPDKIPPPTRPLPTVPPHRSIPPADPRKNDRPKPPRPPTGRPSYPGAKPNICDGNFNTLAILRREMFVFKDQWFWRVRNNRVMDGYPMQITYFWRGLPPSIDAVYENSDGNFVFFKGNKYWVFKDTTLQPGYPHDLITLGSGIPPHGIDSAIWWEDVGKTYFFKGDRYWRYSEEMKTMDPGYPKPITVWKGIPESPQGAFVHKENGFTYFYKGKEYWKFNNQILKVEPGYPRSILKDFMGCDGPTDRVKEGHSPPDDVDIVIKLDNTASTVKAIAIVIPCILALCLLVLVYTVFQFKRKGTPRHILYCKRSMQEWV

C[C@H](NC(=O)CN(C)C(=O)CN(C)C(=O)CN(C)C(=O)CN(C)C(=O)CN(C)C(=O)CN(C)C(=O)CN(C)C(=O)CN(C)C(=O)CN(C)C(=O)CN(C)C(=O)CCN)C(=O)N[C@H]1CSCc2cc3cc(c2)CSC[C@H](NC(=O)[C@@H](C)NC(=O)[C@H](Cc2cccc4ccccc24)NC(=O)[C@H](CCC(=O)O)NC(=O)[C@H](CC(N)=O)NC(=O)[C@@H](C)NC1=O)C(=O)N[C@@H](CCC(=O)O)C(=O)N[C@@H](CC(=O)O)C(=O)N[C@@H](Cc1ccccc1)C(=O)N[C@@H](Cc1ccc(O)cc1)C(=O)N[C@@H](CC(=O)O)C(=O)N[C@@H](C(C)(C)C)C(=O)N[C@H](C(N)=O)CSC3 [N241] (H-[βAla][Sar][Sar][Sar][Sar][Sar][Sar][Sar][Sar][Sar][Sar]AC[dA]NE[1Nal][dA]CEDFYD[Tle]C-NH2; linker 13-19-26 via TBMB; N-terminus and C-terminus assumed)
impact on MMP1 catalytic activity (MMP1 [1]): no direct impact | impact on MMP2 catalytic activity (MMP2 [2]): no direct impact | impact on MMP9 catalytic activity (MMP9): no direct impact | binding toward MMP16 (MMP16): no binding | binding toward MMP15 (MMP15): no binding | binding toward MMP24 (MMP24): no binding | impact on the catalytic activity of the protease (MT1) (MT1): no direct impact | impact on cell migration or invasion [3]: no direct impact | binding toward Pro-MMP1 (Pro-MMP1): no binding | binding toward MMP1 (MMP1 [4]): no binding | binding to the catalytic domain (catalytic domain (MT1)): no binding | binding toward MMP2 (MMP2 [5]): no binding
